Data from ChEMBL document CHEMBL6092193, “Identification of furo[2,3-d]pyrimidin-4-ylsulfanyl-1,3,4-thiadiazole derivatives as novel FLT3-ITD inhibitors” (Eur J Med Chem, 2024).
Calls of active or inactive are those of the source. The calls are words filed in the database; no cut-off is given here.

Key:
HL-60 [1] = assay: Induction of cell cycle arrest in human HL-60 cells assessed as proportion of cells at G2/M phase at 2000 nM incubated for 24 hrs by PI staining based flow cytometry (reference value: 14.52%); format: functional
HL-60 [2] = assay: Induction of cell cycle arrest in human HL-60 cells assessed as proportion of cells at subG1 phase at 3.2 nM incubated for 24 hrs by PI staining based flow cytometry (reference value: 6.94%); format: functional
MV4-11 [3] = assay: Induction of cell cycle arrest in human MV4-11 cells assessed as proportion of cells at subG1 phase at 16 nM incubated for 24 hrs by PI staining based flow cytometry (reference value: 10.44%); format: functional
[4] = Selectivity ratio of GI50 for antiproliferative activity against human MV4-11 cells to GI50 for antiproliferative activity against human MOLM-13 cells
MV4-11 [5] = assay: Induction of cell cycle arrest in human MV4-11 cells assessed as proportion of cells at G2/M phase at 3.2 nM incubated for 24 hrs by PI staining based flow cytometry (reference value: 10%); format: functional
MV4-11 [6] = assay: Induction of cell cycle arrest in human MV4-11 cells assessed as proportion of cells at S phase at 80 nM incubated for 24 hrs by PI staining based flow cytometry (reference value: 25.97%); format: functional
[7] = molecular target: Receptor-type tyrosine-protein kinase FLT3 (Homo sapiens) (UniProt P36888); assay: Inhibition of FLT3 in human MV4-11 cells assessed as inhibition of FLT3 autophosphorylation at Tyr589/591 residues incubated for 1 hr by immunoblot analysis; format: cell-based; details: dose lower […], dose upper 2000.0 nM
Receptor-type tyrosine-protein kinase FLT3 (Homo sapiens), sequence (P36888 whole entry): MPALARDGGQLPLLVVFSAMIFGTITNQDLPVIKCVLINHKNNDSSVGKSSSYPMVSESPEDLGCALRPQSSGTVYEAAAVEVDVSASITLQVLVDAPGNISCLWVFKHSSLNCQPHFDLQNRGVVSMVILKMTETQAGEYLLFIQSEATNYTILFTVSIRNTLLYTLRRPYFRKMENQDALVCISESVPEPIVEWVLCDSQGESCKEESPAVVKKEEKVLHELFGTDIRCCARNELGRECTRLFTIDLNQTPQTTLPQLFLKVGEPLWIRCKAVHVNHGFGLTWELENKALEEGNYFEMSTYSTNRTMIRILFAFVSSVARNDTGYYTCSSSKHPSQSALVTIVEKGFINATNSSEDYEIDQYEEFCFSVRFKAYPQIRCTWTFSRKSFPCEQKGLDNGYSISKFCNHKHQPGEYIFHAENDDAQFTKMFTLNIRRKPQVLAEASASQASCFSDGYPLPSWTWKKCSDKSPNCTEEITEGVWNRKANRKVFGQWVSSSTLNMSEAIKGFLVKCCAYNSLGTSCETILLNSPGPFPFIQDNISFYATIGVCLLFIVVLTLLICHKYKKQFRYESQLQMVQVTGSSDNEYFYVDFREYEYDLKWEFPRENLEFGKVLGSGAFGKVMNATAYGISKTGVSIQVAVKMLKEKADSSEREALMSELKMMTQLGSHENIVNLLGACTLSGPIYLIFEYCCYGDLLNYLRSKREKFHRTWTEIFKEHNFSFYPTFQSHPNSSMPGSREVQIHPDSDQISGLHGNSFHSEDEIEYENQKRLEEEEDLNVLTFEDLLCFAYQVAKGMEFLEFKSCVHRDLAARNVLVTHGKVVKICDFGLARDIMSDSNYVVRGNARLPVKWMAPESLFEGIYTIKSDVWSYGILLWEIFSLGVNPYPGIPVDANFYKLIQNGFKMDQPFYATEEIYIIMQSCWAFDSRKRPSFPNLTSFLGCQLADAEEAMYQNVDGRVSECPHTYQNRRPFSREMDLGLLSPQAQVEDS

HL-60 [8] = assay: Induction of cell cycle arrest in human HL-60 cells assessed as proportion of cells at S phase at 400 nM incubated for 24 hrs by PI staining based flow cytometry (reference value: 36.12%); format: functional
MV4-11 [9] = format: functional, Homo sapiens; details: dose 3.2 nM; time 24 hrs
HL-60 [10] = assay: Induction of cell cycle arrest in human HL-60 cells assessed as proportion of cells at S phase at 16 nM incubated for 24 hrs by PI staining based flow cytometry (reference value: 36.12%); format: functional
HL-60 [11] = assay: Induction of cell cycle arrest in human HL-60 cells assessed as proportion of cells at subG1 phase at 400 nM incubated for 24 hrs by PI staining based flow cytometry (reference value: 6.94%); format: functional
MV4-11 [12] = assay: Induction of cell cycle arrest in human MV4-11 cells assessed as proportion of cells at S phase at 2000 nM incubated for 24 hrs by PI staining based flow cytometry (reference value: 25.97%); format: functional
Kasumi 1 = assay: cells; details: Homo sapiens, Kasumi 1, 72 h
Description: Antiproliferative activity against human Kasumi 1 cells harboring KIT N822K mutant assessed as inhibition of cell growth incubated for 72 hrs by resazurin dye based fluorescence analysis

MV4-11 [13] = assay: Antiproliferative activity against human MV4-11 cells harboring homozygous FLT3-ITD mutant assessed as inhibition of cell growth incubated for 72 hrs by resazurin dye based fluorescence analysis; format: functional
HL-60 [14] = assay: Induction of cell cycle arrest in human HL-60 cells assessed as proportion of cells at G2/M phase at 16 nM incubated for 24 hrs by PI staining based flow cytometry (reference value: 14.52%); format: functional
BaF3 = assay: cells; details: Mus musculus, BaF3, 72 h
HL-60 [15] = assay: Induction of cell cycle arrest in human HL-60 cells assessed as proportion of cells at G1 phase at 3.2 nM incubated for 24 hrs by PI staining based flow cytometry (reference value: 49.36%); format: functional
[16] = system: Receptor-type tyrosine-protein kinase FLT3 (Homo sapiens), P36888 [UNDEFINED MUTATION]; assay: Inhibition of FLT3-ITD mutant (unknown origin) expressed in mouse BaF3 cells assessed as inhibition of FLT3 autophosphorylation at Tyr589/591 residues at 16 to 2000 nM incubated for 2 hrs by immunoblot analysis; format: cell-based; details: dose lower […], dose upper 2000.0 nM
Receptor-type tyrosine-protein kinase FLT3 (Homo sapiens), P36888 [UNDEFINED MUTATION], sequence (P36888 whole entry, looked up, stated change not applied, the tested form may be a part): as the sequence (P36888 whole entry) above

HL-60 [17] = assay: Induction of cell cycle arrest in human HL-60 cells assessed as proportion of cells at G1 phase at 2000 nM incubated for 24 hrs by PI staining based flow cytometry (reference value: 49.36%); format: functional
EOL1 = assay: cells; details: Homo sapiens, EOL1, 72 h
Description: Antiproliferative activity against human EOL1 cells harboring FIP1L1-PDGFRA fusion gene assessed as inhibition of cell growth incubated for 72 hrs by resazurin dye based fluorescence analysis

HL-60 [18] = assay: Induction of cell cycle arrest in human HL-60 cells assessed as proportion of cells at G2/M phase at 400 nM incubated for 24 hrs by PI staining based flow cytometry (reference value: 14.52%); format: functional
[19] = molecular target: Receptor-type tyrosine-protein kinase FLT3 (Homo sapiens) (UniProt P36888); assay: Inhibition of FLT3 in human MV4-11 cells assessed as inhibition of STAT5 phosphorylation at Tyr694 residue incubated for 1 hr by immunoblot analysis; format: cell-based; details: dose lower […], dose upper 2000.0 nM
HL-60 [20] = assay: Induction of cell cycle arrest in human HL-60 cells assessed as proportion of cells at S phase at 80 nM incubated for 24 hrs by PI staining based flow cytometry (reference value: 36.12%); format: functional
[21] = system: Receptor-type tyrosine-protein kinase FLT3 (Homo sapiens), P36888 [UNDEFINED MUTATION]; format: cell-based; details: BaF3, dose lower […], dose upper 2000.0 nM, time 2.0 hrs
[22] = molecular target: High affinity nerve growth factor receptor (Homo sapiens) (UniProt P04629); assay: Binding affinity to human TrkA (441 to 760 residues) expressed in baculovirus-infected Sf21 cells assessed as residual activity using poly(Glu:Tyr) as substrate in presence of ATP and [gamma-33P]ATP incubated for 30 mins by MRC Protein Phoshorylation and Ubiquitylation Unit based Express Panel assay
High affinity nerve growth factor receptor (Homo sapiens), sequence (P04629 33-796 limits assumed): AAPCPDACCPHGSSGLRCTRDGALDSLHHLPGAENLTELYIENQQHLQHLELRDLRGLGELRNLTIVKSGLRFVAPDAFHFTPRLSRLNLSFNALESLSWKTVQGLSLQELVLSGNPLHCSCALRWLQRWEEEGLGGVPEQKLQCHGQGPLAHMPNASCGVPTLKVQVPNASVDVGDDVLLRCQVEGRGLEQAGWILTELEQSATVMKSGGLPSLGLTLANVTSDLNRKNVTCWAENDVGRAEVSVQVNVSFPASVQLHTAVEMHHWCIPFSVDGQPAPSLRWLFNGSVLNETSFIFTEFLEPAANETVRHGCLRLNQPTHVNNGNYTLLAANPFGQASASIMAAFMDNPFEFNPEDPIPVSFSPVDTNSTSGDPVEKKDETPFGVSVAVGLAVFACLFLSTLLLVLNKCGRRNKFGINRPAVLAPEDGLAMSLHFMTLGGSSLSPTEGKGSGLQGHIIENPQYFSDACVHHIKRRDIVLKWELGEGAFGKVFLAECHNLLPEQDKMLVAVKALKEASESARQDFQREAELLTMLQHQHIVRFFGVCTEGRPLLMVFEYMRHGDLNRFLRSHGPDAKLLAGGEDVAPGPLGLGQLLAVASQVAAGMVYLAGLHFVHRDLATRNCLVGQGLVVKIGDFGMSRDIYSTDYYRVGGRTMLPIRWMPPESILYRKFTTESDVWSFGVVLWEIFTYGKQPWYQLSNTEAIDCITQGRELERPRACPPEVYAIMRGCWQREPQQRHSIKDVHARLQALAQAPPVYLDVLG

[23] = system: Receptor-type tyrosine-protein kinase FLT3 (Homo sapiens), P36888 [UNDEFINED MUTATION]; assay: Inhibition of FLT3-ITD mutant (unknown origin) expressed in mouse BaF3 cells assessed as inhibition of STAT5 phosphorylation at Tyr694 residue at 16 to 2000 nM incubated for 2 hrs by immunoblot analysis; format: cell-based; details: dose lower […], dose upper 2000.0 nM
HL-60 [24] = assay: Induction of cell cycle arrest in human HL-60 cells assessed as proportion of cells at S phase at 2000 nM incubated for 24 hrs by PI staining based flow cytometry (reference value: 36.12%); format: functional
MV4-11 [25] = assay: Induction of cell cycle arrest in human MV4-11 cells assessed as proportion of cells at subG1 phase at 80 nM incubated for 24 hrs by PI staining based flow cytometry (reference value: 10.44%); format: functional
HL-60 [26] = assay: cells; details: Homo sapiens, HL-60, 72 h
Description: Antiproliferative activity against human HL-60 cells assessed as inhibition of cell growth incubated for 72 hrs by resazurin dye based fluorescence analysis

[27] = system: Receptor-type tyrosine-protein kinase FLT3 (Homo sapiens), P36888 [UNDEFINED MUTATION]; format: cell-based; details: BaF3, dose lower […], dose upper 2000.0 nM, time 2.0 hrs; remark: listed apart in the source
MV4-11 [28] = assay: Induction of cell cycle arrest in human MV4-11 cells assessed as proportion of cells at G2/M phase at 16 nM incubated for 24 hrs by PI staining based flow cytometry (reference value: 10%); format: functional
MV4-11 [29] = assay: Induction of cell cycle arrest in human MV4-11 cells assessed as proportion of cells at S phase at 16 nM incubated for 24 hrs by PI staining based flow cytometry (reference value: 25.97%); format: functional
MV4-11 [30] = assay: Induction of cell cycle arrest in human MV4-11 cells assessed as proportion of cells at G2/M phase at 2000 nM incubated for 24 hrs by PI staining based flow cytometry (reference value: 10%); format: functional
HL-60 [31] = assay: Induction of cell cycle arrest in human HL-60 cells assessed as proportion of cells at subG1 phase at 80 nM incubated for 24 hrs by PI staining based flow cytometry (reference value: 6.94%); format: functional
MV4-11 [32] = format: functional, Homo sapiens; details: dose 2000 nM; time 24 hrs

COc1ccc(NC(=O)Nc2nnc(Sc3ncnc4oc(-c5ccccc5)cc34)s2)cc1
Activity (HL-60 [1]): 13.94%
Activity (HL-60 [2]): 7.88%
Activity (MV4-11 [3]): 16.42%
RatioGI50 [4]: 100
Activity (MV4-11 [5]): 6.22%
Activity (MV4-11 [6]): 3.85%
inhibition [7]: Dose-dependent-effect
Activity (HL-60 [8]): 35.91%
Activity (MV4-11 [9]): 72.92%
Activity (HL-60 [10]): 37.68%
Activity (HL-60 [11]): 7.9%
Activity (MV4-11 [12]): 5.78%
GI50 (Kasumi 1): 3060 nM
GI50 (MV4-11 [13]): 105 nM
Activity (HL-60 [14]): 13.57%
GI50 (BaF3): 54 nM
Activity (HL-60 [15]): 49.95%
inhibition [16]: Active
Activity (HL-60 [17]): 48.8%
GI50 (EOL1): 39 nM
Activity (HL-60 [18]): 13.74%
inhibition [19]: Dose-dependent-effect
Activity (HL-60 [20]): 37.03%
inhibition [21]: Active
Activity [22]: < 50%
inhibition [23]: Active
Activity (HL-60 [24]): 37.26%
Activity (MV4-11 [25]): 26.76%
GI50 (HL-60 [26]): > 10000 nM
inhibition [27]: Active
Activity (MV4-11 [28]): 2.63%
Activity (MV4-11 [29]): 8.07%
Activity (MV4-11 [30]): 1.1%
Activity (HL-60 [31]): 8.17%
Activity (MV4-11 [32]): 93.13%
